Experimental data: PMC8815882, “Screening the pandemic response box identified benzimidazole carbamates, Olorofim and ravuconazole as promising drug candidates for the treatment of eumycetoma” (PLoS Neglected Tropical Diseases, 2022)
pIC50: −log10 of the molar value. Converted amounts (≈) assume the structure as drawn. Like-named read-outs stand apart in the source and are kept apart here. One block for each compound: values may come before it.

What was measured:
Format in all cases: cell-based, Madurella mycetomatis
[1] = test system: M. mycetomatis genome strain MM55; test: CLSI M38-A2 based in vitro susceptibility screening (XTT or resazurin), growth at fixed concentration; details: Madurella mycetomatis; for Percent fungal survival at 100 µM: read-out: Percentage survival at 100um, 100 uM A (second replicate column)
M. mycetomatis MM55 = test: IC50 determination, 2-fold dilution series 16 to 0.03125 μM; details: for pIC50 / IC90: Madurella mycetomatis
[2] = test system: ten different M. mycetomatis isolates; test: MIC / MIC50 determination (XTT) in ten M. mycetomatis isolates; details: Madurella mycetomatis
[3] = MM55, replicate 1, read-out: IC50 1 um
[4] = MM55, replicate 2, read-out: IC50 2 um
[5] = MM55, replicate 3, read-out: IC50 3 um
[6] = median MIC over ten M. mycetomatis isolates, no asterisk, read-out: MIC50
[7] = MM55, replicate 1, read-out: IC90 1 um
[8] = MM55, replicate 2, read-out: IC90 2 um
[9] = MM55, replicate 3, read-out: IC90 3 um
[10] = 25 uM, replicate A, read-out: Percentage survival at 25um, 25 um A
[11] = 25 uM, replicate B, read-out: Percentage survival at 25um, 25 uM B
[12] = 25 uM, replicate C, read-out: Percentage survival at 25um, 25 uM C

Structure (SMILES): Nc1nc(F)nc2c1ncn2[C@@H]1O[C@H](CO)[C@@H](O)[C@@H]1O [MMV637413, Fludarabine, reference compound]
activity at 25 µM ([1]; 25 uM, replicate A, MM55, read-out: Percentage survival at 25um, 25 um A): 3.41%
activity at 100 µM ([1]; mean of replicates, MM55, read-out: Percentage survival at 100um, 100 uM mean): 3.82%
activity at 100 µM ([1]; replicate 1, MM55, read-out: Percentage survival at 100um, 100 uM A): 1.86%
activity at 100 µM ([1]; replicate 2, MM55, read-out: Percentage survival at 100um, 100 uM A): 1.98%
activity at 100 µM ([1]; replicate 3, MM55, read-out: Percentage survival at 100um, 100 uM A): 7.64%
activity at 25 µM ([1]; read-out: Percentage survival at 25um, 25 uM B): -4.01%
activity at 25 µM ([1]; read-out: Percentage survival at 25um, 25 uM C): 6.32%
activity at 25 µM ([1]; read-out: Percentage survival at 25um, 25 uM mean): 1.91%
Drug static or cidal (M. mycetomatis MM55): Static
pIC50 (M. mycetomatis MM55; MM55, mean of replicates, read-out: IC50 mean): 5.79
IC90 (M. mycetomatis MM55; MM55, IC90, mean of replicates, read-out: IC90 mean): 8.89 µM
IC90 (M. mycetomatis MM55; MM55, IC90, replicate 1, read-out: IC90 1 um): 20.6 µM
IC90 (M. mycetomatis MM55; MM55, IC90, replicate 2, read-out: IC90 2 um): 1.28 µM
IC90 (M. mycetomatis MM55; MM55, IC90, replicate 3, read-out: IC90 3 um): 4.8 µM
pIC50 (M. mycetomatis MM55; [3]): 5.74
pIC50 (M. mycetomatis MM55; [4]): 6.17
pIC50 (M. mycetomatis MM55; [5]): 5.62
pIC50 (M. mycetomatis MM55; Table 2, M. mycetomatis MM55, read-out: IC50): 5.79
MIC50 [2, 6]: 16 µM (≈ 4.56 µg/mL)
MIC ([2]; M. mycetomatis isolate CBS247.48, read-out: MIC CBS247.48): 16 µM (≈ 4.56 µg/mL)
MIC ([2]; M. mycetomatis isolate MM14, read-out: MIC MM14): 16 µM (≈ 4.56 µg/mL)
MIC ([2]; M. mycetomatis isolate MM45, read-out: MIC MM45): > 16 µM
MIC ([2]; M. mycetomatis isolate MM55, read-out: MIC MM55): 16 µM (≈ 4.56 µg/mL)
MIC ([2]; M. mycetomatis isolate P1, read-out: MIC P1): > 16 µM
MIC ([2]; M. mycetomatis isolate ParijsAl1, read-out: MIC ParijsAl1): > 16 µM
MIC ([2]; M. mycetomatis isolate Peru72012, read-out: MIC Peru72012): > 16 µM
MIC ([2]; M. mycetomatis isolate So1, read-out: MIC So1): 16 µM (≈ 4.56 µg/mL)
MIC ([2]; M. mycetomatis isolate i1, read-out: MIC i1): > 16 µM
MIC ([2]; M. mycetomatis isolate i11, read-out: MIC i11): 16 µM (≈ 4.56 µg/mL)
MIC50 ([2]; over ten M. mycetomatis isolates, read-out: MIC50 mean): 16 µM (≈ 4.56 µg/mL)

pIC50 (M. mycetomatis MM55; MM55, Table 2, M. mycetomatis MM55, read-out: IC50): 5.13
IC90 (M. mycetomatis MM55; MM55, mean of replicates, read-out: IC90 mean): 21.8 µM
pIC50 (M. mycetomatis MM55; [3]): 5.45
IC90 (M. mycetomatis MM55; [7]): 20.3 µM
pIC50 (M. mycetomatis MM55; [4]): 5.09
IC90 (M. mycetomatis MM55; [8]): 22.6 µM
pIC50 (M. mycetomatis MM55; [5]): 4.98
IC90 (M. mycetomatis MM55; [9]): 22.6 µM
MIC50 [2, 6]: 16 µM (≈ 5.88 µg/mL)
MIC50 ([2]; over the tested M. mycetomatis isolates, read-out: MIC50 mean): 16 µM (≈ 5.88 µg/mL)
MIC ([2]; isolate CBS247.48, read-out: MIC CBS247.48): > 16 µM
MIC ([2]; isolate MM14, read-out: MIC MM14): 16 µM (≈ 5.88 µg/mL)
MIC ([2]; isolate MM45, read-out: MIC MM45): 8 µM (≈ 2.94 µg/mL)
MIC ([2]; isolate MM55, read-out: MIC MM55): 16 µM (≈ 5.88 µg/mL)
MIC ([2]; isolate P1, read-out: MIC P1): 16 µM (≈ 5.88 µg/mL)
MIC ([2]; isolate ParijsAl1, read-out: MIC ParijsAl1): > 16 µM
MIC ([2]; isolate Peru72012, read-out: MIC Peru72012): 16 µM (≈ 5.88 µg/mL)
MIC ([2]; isolate So1, read-out: MIC So1): > 16 µM
MIC ([2]; isolate i1, read-out: MIC i1): 16 µM (≈ 5.88 µg/mL)
MIC ([2]; isolate i11, read-out: MIC i11): 16 µM (≈ 5.88 µg/mL)
Structure (SMILES): O=S(=O)(Nc1ccc(-n2cccc2)cc1)c1ccc(Cl)c(Cl)c1 [MMV1505642]
activity at 25 µM ([1]; 25 uM, mean of three, M. mycetomatis MM55, read-out: Percentage survival at 25um, 25 uM mean): 0.829%
activity at 25 µM ([1]; 25 uM, replicate A, M. mycetomatis MM55, read-out: Percentage survival at 25um, 25 um A): -1.91%
activity at 25 µM ([1]; 25 uM, replicate B, M. mycetomatis MM55, read-out: Percentage survival at 25um, 25 uM B): 1.17%
activity at 25 µM ([1]; 25 uM, replicate C, M. mycetomatis MM55, read-out: Percentage survival at 25um, 25 uM C): 3.22%
activity at 100 µM ([1]; mean of three, M. mycetomatis MM55, read-out: Percentage survival at 100um, 100 uM mean): 1.07%
activity at 100 µM ([1]; replicate 1, M. mycetomatis MM55, read-out: Percentage survival at 100um, 100 uM A (first replicate column)): -0.332%
Percent fungal survival at 100 µM ([1]; replicate 2, M. mycetomatis MM55): -0.607%
activity at 100 µM ([1]; replicate 3, M. mycetomatis MM55, read-out: Percentage survival at 100um, 100 uM A (third replicate column)): 4.16%
Drug static or cidal (M. mycetomatis MM55; M. mycetomatis): Cidal

pIC50 (M. mycetomatis MM55; MM55, mean, read-out: IC50 mean): < 4.60
IC90 (M. mycetomatis MM55; MM55, read-out: IC90 mean): > 25 µM
pIC50 (M. mycetomatis MM55; MM55, replicate 1, read-out: IC50 1): < 4.60
IC90 (M. mycetomatis MM55; MM55, replicate 1, read-out: IC90 1): > 25 µM
pIC50 (M. mycetomatis MM55; MM55, replicate 2, read-out: IC50 2): < 4.60
IC90 (M. mycetomatis MM55; MM55, replicate 2, read-out: IC90 2): > 25 µM
pIC50 (M. mycetomatis MM55; MM55, replicate 3, read-out: IC50 3): < 4.60
IC90 (M. mycetomatis MM55; MM55, replicate 3, read-out: IC90 3): > 25 µM
Structure (SMILES): CCOC(=O)Nc1cc(NC(C)CC(C)CN(CC)CC)c2nc(-c3ccccc3)c(-c3ccccc3)nc2n1 (stereo not drawn) [MMV1633967]
activity at 25 µM ([1]; 25 uM, mean, read-out: Percentage survival at 25um, 25 uM mean): -1.71%
activity at 25 µM [1, 10]: -4.99%
activity at 25 µM [1, 11]: 0.0169%
activity at 25 µM [1, 12]: -0.146%
activity at 100 µM ([1]; mean, read-out: Percentage survival at 100um, 100 uM mean): 60.2%
activity at 100 µM ([1]; replicate (first column), read-out: Percentage survival at 100um, 100 uM A): 73.9%
activity at 100 µM ([1]; replicate (second column), read-out: Percentage survival at 100um, 100 uM A): 96.6%
activity at 100 µM ([1]; replicate (third column), read-out: Percentage survival at 100um, 100 uM A): 10.1%
Drug static or cidal (M. mycetomatis MM55): Static

pIC50 (M. mycetomatis MM55; MM55, mean of three replicates, read-out: IC50 mean): 4.93
IC90 (M. mycetomatis MM55; MM55, mean of three replicates, read-out: IC90 mean): 22 µM
pIC50 (M. mycetomatis MM55; [3]): 4.85
IC90 (M. mycetomatis MM55; [7]): 22.3 µM
pIC50 (M. mycetomatis MM55; [4]): 5.01
IC90 (M. mycetomatis MM55; [8]): 22.7 µM
pIC50 (M. mycetomatis MM55; [5]): 4.95
IC90 (M. mycetomatis MM55; [9]): 21 µM
Structure (SMILES): Cc1nc2ccc(Oc3ccccc3)cc2c2c1CCN2CCc1ccccc1 [MMV1634399]
activity at 25 µM ([1]; 25 uM, mean of three replicates, read-out: Percentage survival at 25um, 25 uM mean): 3.88%
activity at 25 µM [1, 10]: -3.19%
activity at 25 µM [1, 11]: -1.6%
activity at 25 µM [1, 12]: 16.4%
activity at 100 µM ([1]; mean of three replicates, read-out: Percentage survival at 100um, 100 uM mean): 0.985%
activity at 100 µM ([1]; replicate 1, read-out: Percentage survival at 100um, 100 uM A (first replicate column)): 1.91%
Percent fungal survival at 100 µM ([1]; replicate 2): -0.867%
activity at 100 µM ([1]; replicate 3, read-out: Percentage survival at 100um, 100 uM A (third replicate column)): 1.92%
Drug static or cidal (M. mycetomatis MM55): Cidal
